Test results: PMC6718988, “Bioactivity and Bactericidal Mechanism of Histidine-Rich β-Hairpin Peptide Against Gram-Negative Bacteria” (International Journal of Molecular Sciences, 2019)
Where a SMILES comes first, the peptide text is derived from it. [ ]: non-standard residue; d: D form.

Assays:
[1] = RP-HPLC retention time as measure of hydrophobicity; format: physicochemical; conditions: analytical Kromasil C18 column 4.6 mm × 250 mm, 5.0 μm, acetonitrile, flow 1.0 mL/min, used as measure of hydrophobicity
Experimental: The hydrophobicities of the peptides in solution were reliably mirrored by their high-performance liquid chromatography (HPLC)retention times. The retention times for peptide HI2, HW2, HV2, HF2, and PG-1 were 11.13, 10.55, 12.20, 18.06 and 12.56 min, respectively, indicating the following hydrophobic order: HF2 > PG-1 > HV2 > HI2 > HW2(Table 1).
The designed peptides were synthesized and purified by GL Biochem (Shanghai, China). Acetonitrile was used on an analytical Kromasil C18 column (4.6 mm × 250 mm, 5.0 μm, LC 3000, Beijing, China), and the purity of the peptides was determined to be greater than 95% via reversed-phase high-performance liquid chromatography (RP-HPLC) with a flow rate of 1.0 mL/min. The experimental molecular weights of the peptides were evaluated via ESI-MS analysis, and these values were very close to the calculated masses. Next, the peptides were dissolved in deionized water at a concentration of 2.56 mM, and the peptide solutions were stored at −20 °C.

[2] = tested on: TNF-α production in RAW264.7 cells; experiment: Inhibition of endotoxin-induced inflammation (LPS-stimulated TNF-α production); format: cell-based, murine; conditions: 32 μM peptide, 100 ng/mL LPS, 18 h, 37 °C, ELISA
Experimental: TNF-α production by the RAW264.7 cells was stimulated with LPS to evaluate the LPS neutralization characteristics of the peptides. Briefly, (1.0–2.0) × 10^5 RAW264.7 cells were plated in 96-well plates and stimulated with LPS (100 ng/mL) for 18 h at 37 °C in the absence or presence of peptides (2–64 μM). The negative and positive controls were untreated cells and cells treated with LPS alone. The supernatant was used to evaluate the endotoxin neutralizing ability of the antimicrobial peptides by analyzing the TNF-α production using […] ELISA (Boster, Wuhan, China).

E. coli ATCC25922 = experiment: SEM characterization of cell morphology; format: cell-based; conditions: E. coli ATCC25922, 1 × MIC (HV2 8 μM, PG-1 4 μM), 1 h
Experimental: For the SEM sample preparation, E. coli ATCC25922 cells were cultured at 37 °C to mid-log phase in MH broth with constant shaking at 220 rpm, centrifuged at 1000 g and then adjusted to an OD600 of 0.1–0.2 in PBS. […] Bacteria incubated with PBS served as controls. After the incubation, the mixture was centrifuged at 5000 g for 5 min, and the collected bacteria were washed three times with PBS. Approximately 2.5% (w/v) glutaraldehyde was added for fixation at 4 °C overnight, followed by washing three times with PBS. The samples were dehydrated with 50%, 70%, 90%, 100% ethanol for 10 min. A mixture of ethanol and tert-butanol was added to the dried bacterial cells for 30 min, and then t-butanol was added for 1 h. Finally, the samples were dehydrated and coated with liquid CO2 in a critical point dryer and then observed using a Hitachi S-4800 SEM (Hitachi, Tokyo, Japan).

Compound: CC(C)[C@H](NC(=O)CNC(=O)[C@H]1CCCN1C(=O)[C@@H](NC(=O)[C@H](Cc1c[nH]cn1)NC(=O)[C@@H](NC(=O)[C@H](Cc1c[nH]cn1)NC(=O)[C@@H](NC(=O)[C@H](CCCNC(=N)N)NC(=O)[C@@H](N)CCCNC(=N)N)C(C)C)C(C)C)C(C)C)C(=O)N[C@@H](Cc1c[nH]cn1)C(=O)N[C@H](C(=O)N[C@@H](Cc1c[nH]cn1)C(=O)N[C@H](C(=O)N[C@@H](CCCNC(=N)N)C(=O)N[C@@H](CCCNC(=N)N)C(N)=O)C(C)C)C(C)C [HV2] (H-RRVHVHV[dP]GVHVHVRR-NH2; N-terminus assumed)
- Retention Time [1]: 12.20 min
- neutralizing activity against LPS (TNF-α level) [2]: ~100%
- cell morphology by SEM (E. coli ATCC25922): rough and wrinkled
